These results are taken from patent US6903129B2, “D-proline prodrugs” (Hoffman-La Roche Inc., priority 2001, dated 2005).

The nature of series [1]: Rat liver microsome incubation. It is filed as in vitro ADME. The note with it: for Rat microsomes Clearance: intrinsic clearance, rat liver microsomes 1.0 mg prot/mL, prodrug 10 μM, 37° C.; for Rat microsomes MAB %: maximal achievable bioavailability (1−E), extrapolated from rat microsomal clearance. Here is the method:
(§1) Test Description for Microsome Incubation
(§2) Rat and human liver microsome incubations were conducted on-line in a CTC PAL autosampler in order to avoid any degradation of the prodrugs during the work-up. Incubation mixtures consisted of liver microsomes (rat 1.0 mg prot/mL or human 2.0 mg prot/mL), prodrug 10 μM, MgCl2 (3.3 mM), and an NADPH regenerating system consisting of glucose-6-phosphate dehydrogenase, NADPH and glucose-6-phosphate equivalent to 1 mM NADPH) in a total volume of 1.0 mL of potassium phosphate buffer 100 mM pH 7.4.
(§3) Reactions were initiated by addition of the NADPH regenerating system at 37° C. At time 1, 5, 9, 13, 17, 21, 25, and 29 min a 5 μL aliquot was directly analysed on a HPLC-MS/MS system comprising of a HP 1100 quaternary pump with degasser and a PE-Sciex API-2000 MS/MS spectrometer. The analytical column was a Waters Symmetry Shield RP8 (2.1*50 mm with a […] particle size). A polarity non linear gradient from phase A (MeOH/Ac. Form.1% 20/80) to phase B (MeOH) was applied for a total run time of 2 minutes at a flow rate of 0.25 mL/min. The PE-Sciex API-2000 MS/MS spectrometer was used for detection of both the prodrugs and the parent compound (R)-1-[6-[(R)-2-carboxy-pyrrolidin-1-yl]-6-oxo-hexanoyl]-pyrrolidine-2-carboxylic acid. In vivo metabolic clearance was predicted according to published procedures (Houston, J. B., Biochem. Pharmacol., 47:1469-1479, 1994). In brief, the intrinsic clearance (Clearance, Table 1) was calculated from the measured in vitro half-life taking into account incubation volume and microsomal protein used for the in vitro incubation. The intrinsic clearance was expressed in terms of ul/min/mg microsomal protein. For in vivo extrapolations, the hepatic extraction ratio (E) was calculated. Reported below is the %MAB value (maximal achievable bioavailability), which is equal to 1−E.

Series [2] in a line: Human liver microsome incubation. It is filed as in vitro ADME. The note with it: for Human microsomes Clearance: intrinsic clearance, human liver microsomes 2.0 mg prot/mL, prodrug 10 μM, 37° C.; for Human microsomes MAB %: maximal achievable bioavailability (1−E), extrapolated from human microsomal clearance. Here is the method:
as §1, §2, §3

Series [3] in a line: Stability of the prodrugs in plasma samples. Format: in vitro ADME, rat. The note with it: half-life (50% conversion of the prodrug), 10 μM, 37° C. Here is the method: Stability of the Prodrugs in Blood and Plasma Samples
Plasma and blood samples from different species were merged with equimolar amounts (10 μM) of prodrug and parent drug in DMSO and incubated for different time intervals (up to 60 min.) at 37° C. The reaction was stopped by protein precipitation with acetonitrile followed by centrifugation (20 min., 1800 g at 10° C.). The supernatant was immediately subjected to analysis.
The concentration of formed parent compound was determined by LC-MS. The chromatographic system was comprised of a trapping column (X-Terra™ MS C8 3.5 μm, 10×2.1 mm i.d., Waters) and an analytical column (Symmetry C8 3.5 μm, 50×2.1 mm i.d., Waters) connected to a SCIEX API 2000 triplequadrupole mass spectrometer equipped with a turbo ion spray interface. The mobile phases were 1% aqueous formic acid and acetonitrile. The parent compound together with its deuterium labelled internal standard was enriched on the trapping column and eluted with a fast gradient. The retention time of (R)-1-[6-[(R)-2-carboxy-pyrrolidin-1-yl]-6-oxo-hexanoyl]-pyrrolidine-2-carboxylic acid was ˜2.1 min. The effluent (300 μl min^−1) was passed to the turbo ion spray interface without splitting and was nebulized using nitrogen. Multiple reaction monitoring (MRM) in positive mode Was used for mass spectrometric detection. The transitions for the parent were 341.1 [M+H]^+ to 226.1 [Fragment]^+ and for the internal standard 349.1 [M+H]^+ to 234.1 [Fragment]^+. The results were expressed as half-lifes (50% conversion of the prodrug), using the data of the prodrug at time-point 0 min. as […].

With `O=C(COC(=O)[C@H]1CCCN1C(=O)CCCCC(=O)N1CCC[C@@H]1C(=O)OCC(=O)NC1CC1)NC1CC1` [Example 5, (R)-1-{6-[(R)-2-(Cyclopropylcarbamoyl-methoxycarbonyl)-pyrrolidin-1-yl]-6-oxo-hexanoyl}-pyrrolidine-2-carboxylic acid cyclopropylcarbamoyl-methyl ester], in series [1], the “Rat microsomes Clearance” value was 36 ul/min/mg microsomal protein and the “Rat microsomes MAB %” value is 50%. Further, in series [2], the “Human microsomes Clearance” value was 8 ul/min/mg microsomal protein and the “Human microsomes MAB %” value is reported as 67%. Further, the “Rat plasma tl/2 hours” value in series [3] is listed as “low”.
As for `CC(C)(C)NC(=O)COC(=O)[C@H]1CCCN1C(=O)CCCCC(=O)N1CCC[C@@H]1C(=O)OCC(=O)NC(C)(C)C` [Example 4, (R)-1-{6-[(R)-2-(tert-Butylcarbamoyl-methoxycarbonyl)-pyrrolidin-1-yl]-6-oxo-hexanoyl}-pyrrolidine-2-carboxylic acid tert-butylcarbamoyl-methyl ester], in series [1], the “Rat microsomes Clearance” value is on record as 625 ul/min/mg microsomal protein and the “Rat microsomes MAB %” value is on record as 5%. Besides, in series [2], the “Human microsomes Clearance” value is listed as 57 ul/min/mg microsomal protein and the “Human microsomes MAB %” value was 22%. Besides, the “Rat plasma tl/2 hours” value in series [3] is “low”.
On the same counts, the results for `NC(=O)COC(=O)[C@H]1CCCN1C(=O)CCCCC(=O)N1CCC[C@@H]1C(=O)OCC(N)=O` [Example 1, (R)-1-[6-[(R)-2-Carbamoylmethoxycarbonyl-pyrrolidin-1-yl]-6-oxo-hexanoyl]-pyrrolidine-2-carboxylic acid carbamoylmethyl ester] are 5 ul/min/mg microsomal protein, 88%, 1 ul/min/mg microsomal protein, 93% and 0.4 h.
For the compound `CCN(CC)C(=O)COC(=O)[C@H]1CCCN1C(=O)CCCCC(=O)N1CCC[C@@H]1C(=O)OCC(=O)N(CC)CC` [Example 7, (R)-1-{6-[(R)-2-(Diethylcarbamoyl-methoxycarbonyl)-pyrrolidin-1-yl]-6-oxo-hexanoyl}-pyrrolidine-2-carboxylic acid diethylcarbamoyl-methyl ester], in series [1], the “Rat microsomes Clearance” value is reported as 9 ul/min/mg microsomal protein and the “Rat microsomes MAB %” value was 73%. For the same compound, in series [2], the “Human microsomes Clearance” value is reported as 2 ul/min/mg microsomal protein and the “Human microsomes MAB %” value was 90%. The “Rat plasma tl/2 hours” value in series [3] came to 0.2 h.
In the same order, the values of `CCOC(=O)[C@H]1CCCN1C(=O)CCCCC(=O)N1CCC[C@@H]1C(=O)OCC` [Example 11, (R)-1-{6-[(R)-2-Ethoxycarbonyl-pyrrolidin-1-yl]-6-oxo-hexanoyl}-pyrrolidine-2-carboxylic acid ethyl ester] are 46 ul/min/mg microsomal protein, 44%, 5 ul/min/mg microsomal protein, 77% and 0.4 h.
Consider `CCCOC(=O)[C@H]1CCCN1C(=O)CCCCC(=O)N1CCC[C@@H]1C(=O)OCCC` [Example 12, (R)-1-{6-Oxo-6-[(R)-2-propoxycarbonyl-pyrrolidin-1-yl]-hexanoyl}-pyrrolidine-2-carboxylic acid propyl ester], for which, in series [1], the “Rat microsomes Clearance” value is reported as 253 ul/min/mg microsomal protein and the “Rat microsomes MAB %” value is on record as 12%. In series [2], the “Human microsomes Clearance” value is given as 73 ul/min/mg microsomal protein and the “Human microsomes MAB %” value is given as 18%.
Take `COC(=O)[C@H]1CCCN1C(=O)CCCCC(=O)N1CCC[C@@H]1C(=O)OC` [Example 10, (R)-1-{6-[(R)-2-Methoxycarbonyl-pyrrolidin-1-yl]-6-oxo-hexanoyl}-pyrrolidine-2-carboxylic acid methyl ester]: in series [1], the “Rat microsomes Clearance” value was 9 ul/min/mg microsomal protein and the “Rat microsomes MAB %” value is reported as 79%. In addition, in series [2], the “Human microsomes Clearance” value is 2 ul/min/mg microsomal protein and the “Human microsomes MAB %” value was 90%. Besides, the “Rat plasma tl/2 hours” value in series [3] was found to be 1.3 h.
Take `C=CCNC(=O)COC(=O)[C@H]1CCCN1C(=O)CCCCC(=O)N1CCC[C@@H]1C(=O)OCC(=O)NCC=C` [Example 2, (R)-1-[6-[(R)-2-Allylcarbamoylmethoxycarbonyl-pyrrolidin-1-yl]-6-oxo-hexanoyl]-pyrrolidine-2-carboxylic acid allylcarbamoylmethyl ester]: in series [1], the “Rat microsomes Clearance” value is 18 ul/min/mg microsomal protein and the “Rat microsomes MAB %” value is on record as 66%. Further, in series [2], the “Human microsomes Clearance” value was 64 ul/min/mg microsomal protein and the “Human microsomes MAB %” value is 20%. In addition, the “Rat plasma tl/2 hours” value in series [3] is on record as “low”.
In the same order, the values of `CN(C)C(=O)COC(=O)[C@H]1CCCN1C(=O)CCCCC(=O)N1CCC[C@@H]1C(=O)OCC(=O)N(C)C` [Example 6, (R)-1-{6-[(R)-2-(Dimethylcarbamoyl-methoxycarbonyl)-pyrrolidin-1-yl]-6-oxo-hexanoyl}-pyrrolidine-2-carboxylic acid dimethylcarbamoyl-methyl ester] are 7 ul/min/mg microsomal protein, 84%, 1 ul/min/mg microsomal protein, 96% and 0.8 h.
In the same order, the values of `CC(C)NC(=O)COC(=O)[C@H]1CCCN1C(=O)CCCCC(=O)N1CCC[C@@H]1C(=O)OCC(=O)NC(C)C` [Example 3, (R)-1-{6-[(R)-2-(Isopropylcarbamoyl-methoxycarbonyl)-pyrrolidin-1-yl]-6-oxo-hexanoyl}-pyrrolidine-2-carboxylic acid isopropylcarbamoyl-methyl ester] are 82 ul/min/mg microsomal protein, 30%, 16 ul/min/mg microsomal protein, 50% and “low”.
